The record followed here is patent US10538555B2, “Macrocyclic inhibitors of the PD-1/PD-L1 and CD80(B7-1)/PD-L1 protein/protein interactions” (BRISTOL-MYERS SQUIBB COMPANY, priority 2014, dated 2020).

In the assay the target is T1, Human PD-L1/PD-1 (Homo sapiens, UniProt Q9NZQ7).
T1 construct: TVMV protease cleavage site (C); made in house; host or cells: HEK293T cells
The assay is described as follows: HTRF Human PD-L1/PD-1 binding assay (PD-1-Ig/PD-L1-His). Particulars: PD-L1-His 10 nM, PD-1-Ig 20 nM. The method in brief: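 Step 1: compound with PD-L1-His (10 nM final), 15 min. Step 2: PD-1-Ig (20 nM final), 15 min. Step 3: Eu-cryptate anti-Ig (1 nM) plus APC anti-His (20 nM), 30 min equilibration. Signal taken as 665 nm/620 nm ratio.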

[1] abbreviates: class symbol, read-out: HTRF Human PD-L1/PD-1 Binding Assay IC50 Range.

Where two headings read alike, the source gives them in different places. Where a SMILES comes first, the peptide text is derived from it. Bridges are numbered along the chain shown (N, C = ends). [ ]: non-standard residue; d: D form. ξ: configuration not given here. Phe(3,4,5-F3) = N[C@@H](Cc1cc(F)c(F)c(F)c1)C(=O)O; Bta = N[C@@H](Cc1csc2ccccc12)C(=O)O; Hyp = O=C(O)[C@@H]1C[C@@H](O)CN1; NMeF = CN[C@@H](Cc1ccccc1)C(=O)O; NMeNle = CCCC[C@H](NC)C(=O)O; dPip = O=C(O)[C@H]1CCCCN1; hSer = N[C@@H](CCO)C(=O)O; NMeA = CN[C@@H](C)C(=O)O; Abu = CC[C@H](N)C(=O)O; ξC = NC(CS)C(=O)O; Sar = CNCC(=O)O

T1 sequence (Q9NZQ7 with tags, fused parts or gaps): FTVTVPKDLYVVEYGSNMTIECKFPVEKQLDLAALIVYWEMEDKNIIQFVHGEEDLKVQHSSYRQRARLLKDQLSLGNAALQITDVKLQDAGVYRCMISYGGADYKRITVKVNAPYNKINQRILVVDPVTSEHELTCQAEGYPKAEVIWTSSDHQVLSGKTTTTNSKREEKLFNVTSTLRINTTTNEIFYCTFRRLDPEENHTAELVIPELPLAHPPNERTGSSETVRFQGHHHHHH

For `CCCC[C@H]1C(=O)N(C)[C@@H](CCCC)C(=O)N[C@@H](CCCNC(=N)N)C(=O)NC(C(=O)NCC(N)=O)CSCC(=O)N[C@@H](Cc2ccc(O)cc2)C(=O)N(C)[C@@H](C)C(=O)N[C@@H](CC(N)=O)C(=O)N2CCC[C@H]2C(=O)N[C@@H](CO)C(=O)N[C@@H](CCO)C(=O)N2CCC[C@H]2C(=O)N[C@@H](Cc2c[nH]c3ccccc23)C(=O)N[C@@H](CCO)C(=O)N[C@@H](Cc2c[nH]c3ccccc23)C(=O)N1C` (stereo partly shown) [Example 10051] ({CH2CO}-Y[NMeA]NPS[hSer]PW[hSer]W[NMeNle][NMeNle]R[ξC]G-NH2; thioether N-14), the IC50 under setting [1] was 1 to 9.9 nM.
Still for that read-out and setting: under `CCCC[C@H]1C(=O)N(C)[C@@H](CCCC)C(=O)N[C@@H](CCCNC(=N)N)C(=O)NC(C(=O)NCC(N)=O)CSCC(=O)N[C@@H](Cc2ccc(O)cc2)C(=O)N(C)[C@@H](C)C(=O)N[C@@H](CC(N)=O)C(=O)N2CCC[C@H]2C(=O)N[C@@H](CO)C(=O)N[C@@H](CCO)C(=O)N2C[C@H](O)C[C@H]2C(=O)N[C@@H](Cc2c[nH]c3ccccc23)C(=O)N[C@@H](CCO)C(=O)N[C@@H](Cc2c[nH]c3ccccc23)C(=O)N1C` (stereo partly shown) [Example 10052] ({CH2CO}-Y[NMeA]NPS[hSer][Hyp]W[hSer]W[NMeNle][NMeNle]R[ξC]G-NH2; thioether N-14) stands 1 to 9.9 nM; under `CCCC[C@H]1C(=O)N2CCC[C@@H]2C(=O)N[C@@H](CC(=O)O)C(=O)N[C@@H](C)C(=O)N(C)[C@@H](Cc2ccccc2)C(=O)N[C@@H](Cc2ccc(O)cc2)C(=O)N(C)CC(=O)N[C@@H](Cc2c[nH]c3ccccc23)C(=O)N[C@@H](Cc2ccc(O)cc2)C(=O)N[C@@H](CC(C)C)C(=O)N[C@H](C(=O)NCC(N)=O)CSCC(=O)N[C@@H](Cc2cc(F)c(F)c(F)c2)C(=O)N(C)[C@@H](Cc2ccccc2)C(=O)N1C` [Example 10053] ({CH2CO}-[Phe(3,4,5-F3)][NMeF][NMeNle][dP]DA[NMeF]Y[Sar]WYLCG-NH2; thioether N-13), 10 to 99.9 nM; under `CCCC[C@H]1C(=O)N2CCC[C@@H]2C(=O)N[C@@H](CO)C(=O)N[C@@H](C)C(=O)N(C)[C@@H](Cc2ccccc2)C(=O)N[C@@H](Cc2ccc(O)cc2)C(=O)N(C)CC(=O)N[C@@H](Cc2c[nH]c3ccccc23)C(=O)N[C@@H](Cc2ccc(O)cc2)C(=O)N[C@@H](CC(C)C)C(=O)N[C@H](C(=O)NCC(N)=O)CSCC(=O)N[C@@H](Cc2ccccc2)C(=O)N(C)[C@@H](Cc2ccccc2)C(=O)N1C` [Example 10054] ({CH2CO}-F[NMeF][NMeNle][dP]SA[NMeF]Y[Sar]WYLCG-NH2; thioether N-13), 100 to 990 nM.
On the same count and under the same terms, under `CCCC[C@H]1C(=O)N2CCC[C@@H]2C(=O)N[C@@H](CO)C(=O)N[C@@H](C)C(=O)N(C)[C@@H](Cc2ccccc2)C(=O)N[C@@H](Cc2ccc(O)cc2)C(=O)N(C)CC(=O)N[C@@H](Cc2csc3ccccc23)C(=O)N[C@@H](Cc2ccc(O)cc2)C(=O)N[C@@H](CC(C)C)C(=O)N[C@H](C(=O)NCC(N)=O)CSCC(=O)N[C@@H](Cc2ccccc2)C(=O)N(C)[C@@H](Cc2ccccc2)C(=O)N1C` [Example 10055] ({CH2CO}-F[NMeF][NMeNle][dP]SA[NMeF]Y[Sar][Bta]YLCG-NH2; thioether N-13) stands 100 to 990 nM; under `CCCC[C@H]1C(=O)N2CCC[C@@H]2C(=O)N[C@@H](CO)C(=O)N[C@@H](C)C(=O)N(C)[C@@H](Cc2ccccc2)C(=O)N[C@@H](Cc2ccc(O)cc2)C(=O)N2CCCC[C@@H]2C(=O)N[C@@H](Cc2c[nH]c3ccccc23)C(=O)N[C@@H](Cc2ccc(O)cc2)C(=O)N[C@@H](CC(C)C)C(=O)N[C@H](C(=O)NCC(N)=O)CSCC(=O)N[C@@H](Cc2ccccc2)C(=O)N(C)[C@@H](Cc2ccccc2)C(=O)N1C` [Example 10056] ({CH2CO}-F[NMeF][NMeNle][dP]SA[NMeF]Y[dPip]WYLCG-NH2; thioether N-13), 100 to 990 nM.
`CCCC[C@H]1C(=O)N(C)CC(=O)N[C@@H](CO)C(=O)N[C@@H](C)C(=O)N(C)[C@@H](Cc2ccccc2)C(=O)N[C@@H](Cc2ccc(O)cc2)C(=O)N2CCCC[C@@H]2C(=O)N[C@@H](Cc2c[nH]c3ccccc23)C(=O)N[C@@H](Cc2ccc(O)cc2)C(=O)N[C@@H](CC(C)C)C(=O)N[C@H](C(=O)NCC(N)=O)CSCC(=O)N[C@@H](Cc2ccccc2)C(=O)N(C)[C@@H](Cc2ccccc2)C(=O)N1C` [Example 10057] ({CH2CO}-F[NMeF][NMeNle][Sar]SA[NMeF]Y[dPip]WYLCG-NH2; thioether N-13): the IC50 (read-out: HTRF Human PD-L1/PD-1 Binding Assay IC50) was determined as 215 nM.
Consider `CCCC[C@H]1C(=O)N2CCC[C@@H]2C(=O)N[C@@H](CO)C(=O)N[C@@H](CC)C(=O)N(C)[C@@H](Cc2ccccc2)C(=O)N[C@@H](Cc2ccc(O)cc2)C(=O)N(C)CC(=O)N[C@@H](Cc2c[nH]c3ccccc23)C(=O)N[C@@H](Cc2ccc(O)cc2)C(=O)N[C@@H](CC(C)C)C(=O)N[C@H](C(=O)NCC(N)=O)CSCC(=O)N[C@@H](Cc2ccccc2)C(=O)N(C)[C@@H](Cc2ccccc2)C(=O)N1C` [Example 10058] ({CH2CO}-F[NMeF][NMeNle][dP]S[Abu][NMeF]Y[Sar]WYLCG-NH2; thioether N-13), for which, under setting [1], the IC50 is 10 to 99.9 nM.
Turning to `CCCC[C@H]1C(=O)N2CCC[C@@H]2C(=O)N[C@@H](CO)C(=O)N[C@@H](CC)C(=O)N(C)[C@@H](Cc2ccccc2)C(=O)N[C@@H](Cc2ccc(O)cc2)C(=O)N(C)CC(=O)N[C@@H](Cc2csc3ccccc23)C(=O)N[C@@H](Cc2ccc(O)cc2)C(=O)N[C@@H](CC(C)C)C(=O)N[C@H](C(=O)NCC(N)=O)CSCC(=O)N[C@@H](Cc2ccccc2)C(=O)N(C)[C@@H](Cc2ccccc2)C(=O)N1C` [Example 10059] ({CH2CO}-F[NMeF][NMeNle][dP]S[Abu][NMeF]Y[Sar][Bta]YLCG-NH2; thioether N-13), the IC50 under setting [1] is 10 to 99.9 nM.
Still for that read-out and setting: under `CCCC[C@H]1C(=O)N2CCC[C@@H]2C(=O)N[C@@H](CO)C(=O)N[C@@H](CC)C(=O)N(C)[C@@H](Cc2ccccc2)C(=O)N[C@@H](Cc2ccc(O)cc2)C(=O)N2CCCC[C@@H]2C(=O)N[C@@H](Cc2c[nH]c3ccccc23)C(=O)N[C@@H](Cc2ccc(O)cc2)C(=O)N[C@@H](CC(C)C)C(=O)N[C@H](C(=O)NCC(N)=O)CSCC(=O)N[C@@H](Cc2ccccc2)C(=O)N(C)[C@@H](Cc2ccccc2)C(=O)N1C` [Example 10060] ({CH2CO}-F[NMeF][NMeNle][dP]S[Abu][NMeF]Y[dPip]WYLCG-NH2; thioether N-13) stands 10 to 99.9 nM; under `CCCC[C@H]1C(=O)N(C)CC(=O)N[C@@H](CO)C(=O)N[C@@H](CC)C(=O)N(C)[C@@H](Cc2ccccc2)C(=O)N[C@@H](Cc2ccc(O)cc2)C(=O)N2CCCC[C@@H]2C(=O)N[C@@H](Cc2c[nH]c3ccccc23)C(=O)N[C@@H](Cc2ccc(O)cc2)C(=O)N[C@@H](CC(C)C)C(=O)N[C@H](C(=O)NCC(N)=O)CSCC(=O)N[C@@H](Cc2ccccc2)C(=O)N(C)[C@@H](Cc2ccccc2)C(=O)N1C` [Example 10061] ({CH2CO}-F[NMeF][NMeNle][Sar]S[Abu][NMeF]Y[dPip]WYLCG-NH2; thioether N-13), 10 to 99.9 nM.
As to `CCCC[C@H]1C(=O)N2CCC[C@@H]2C(=O)N[C@@H](CO)C(=O)N[C@@H](C(C)C)C(=O)N(C)[C@@H](Cc2ccccc2)C(=O)N[C@@H](Cc2ccc(O)cc2)C(=O)N(C)CC(=O)N[C@@H](Cc2c[nH]c3ccccc23)C(=O)N[C@@H](Cc2ccc(O)cc2)C(=O)N[C@@H](CC(C)C)C(=O)N[C@H](C(=O)NCC(N)=O)CSCC(=O)N[C@@H](Cc2ccccc2)C(=O)N(C)[C@@H](Cc2ccccc2)C(=O)N1C` [Example 10062] ({CH2CO}-F[NMeF][NMeNle][dP]SV[NMeF]Y[Sar]WYLCG-NH2; thioether N-13), the IC50 under setting [1] lay within 10 to 99.9 nM.
On to `CCCC[C@H]1C(=O)N2CCC[C@@H]2C(=O)N[C@@H](CO)C(=O)N[C@@H](C(C)C)C(=O)N(C)[C@@H](Cc2ccccc2)C(=O)N[C@@H](Cc2ccc(O)cc2)C(=O)N(C)CC(=O)N[C@@H](Cc2csc3ccccc23)C(=O)N[C@@H](Cc2ccc(O)cc2)C(=O)N[C@@H](CC(C)C)C(=O)N[C@H](C(=O)NCC(N)=O)CSCC(=O)N[C@@H](Cc2ccccc2)C(=O)N(C)[C@@H](Cc2ccccc2)C(=O)N1C` [Example 10063] ({CH2CO}-F[NMeF][NMeNle][dP]SV[NMeF]Y[Sar][Bta]YLCG-NH2; thioether N-13), for which the IC50 under setting [1] fell in the range of 10 to 99.9 nM.
On the same count and under the same terms, the figure for `CCCC[C@H]1C(=O)N2CCC[C@@H]2C(=O)N[C@@H](CO)C(=O)N[C@@H](C(C)C)C(=O)N(C)[C@@H](Cc2ccccc2)C(=O)N[C@@H](Cc2ccc(O)cc2)C(=O)N2CCCC[C@@H]2C(=O)N[C@@H](Cc2c[nH]c3ccccc23)C(=O)N[C@@H](Cc2ccc(O)cc2)C(=O)N[C@@H](CC(C)C)C(=O)N[C@H](C(=O)NCC(N)=O)CSCC(=O)N[C@@H](Cc2ccccc2)C(=O)N(C)[C@@H](Cc2ccccc2)C(=O)N1C` [Example 10064] ({CH2CO}-F[NMeF][NMeNle][dP]SV[NMeF]Y[dPip]WYLCG-NH2; thioether N-13) is 10 to 99.9 nM; for `CCCC[C@H]1C(=O)N(C)CC(=O)N[C@@H](CO)C(=O)N[C@@H](C(C)C)C(=O)N(C)[C@@H](Cc2ccccc2)C(=O)N[C@@H](Cc2ccc(O)cc2)C(=O)N2CCCC[C@@H]2C(=O)N[C@@H](Cc2c[nH]c3ccccc23)C(=O)N[C@@H](Cc2ccc(O)cc2)C(=O)N[C@@H](CC(C)C)C(=O)N[C@H](C(=O)NCC(N)=O)CSCC(=O)N[C@@H](Cc2ccccc2)C(=O)N(C)[C@@H](Cc2ccccc2)C(=O)N1C` [Example 10065] ({CH2CO}-F[NMeF][NMeNle][Sar]SV[NMeF]Y[dPip]WYLCG-NH2; thioether N-13) it is 10 to 99.9 nM; for `CCCC[C@H]1C(=O)N2CCC[C@@H]2C(=O)N[C@@H](CO)C(=O)N[C@@H](C(C)C)C(=O)N(C)[C@@H](Cc2ccccc2)C(=O)N[C@@H](Cc2ccc(O)cc2)C(=O)N2CCC[C@@H]2C(=O)N[C@@H](Cc2c[nH]c3ccccc23)C(=O)N[C@@H](Cc2ccc(O)cc2)C(=O)N[C@@H](CC(C)C)C(=O)N[C@H](C(=O)NCC(N)=O)CSCC(=O)N[C@@H](Cc2cc(F)c(F)c(F)c2)C(=O)N(C)[C@@H](Cc2ccccc2)C(=O)N1C` [Example 10066] ({CH2CO}-[Phe(3,4,5-F3)][NMeF][NMeNle][dP]SV[NMeF]Y[dP]WYLCG-NH2; thioether N-13) it is 1 to 9.9 nM.
